# Data taken from US20190175479A1, “Zinc-Amino Acid-Tripolyphosphate Complexes” (Colgate-Palmolive Company, priority 2017, published 2019).
# Key:
# Assay type in all cases: physicochemical
# [1] = Titration of zinc chloride with sodium tripolyphosphate, clarity of solution; settings: zinc chloride titrated with sodium tripolyphosphate; solution cloudy until about 1 equivalent of STPP was added
# Method: In the single component titration procedure, a scintillation vial (20 mL) is loaded with 2 mL of a 0.25M zinc nitrate solution and 6 mL of distilled water. The vial is stirred on a magnetic stir plate with an immersed pH electrode. Initial pH is measured. While stirring, the solution is slowly titrated with a 0.75M aqueous solution of arginine in small portions (e.g., 0.01-0.1 mL). In between each addition, the solution is allowed to equilibrate and the pH is recorded. At the conclusion of the experiment, the molar equivalent of added arginine is plotted against the pH. The slope is calculated and plotted as well to highlight the inflection points, which indicate where complex formation takes places.
# Substantially the same single-component titration procedure is also performed in a titration of 0.75M zinc chloride with 0.25M sodium tripolyphosphate.
# [2] = Polyphosphate experiment (mixing with STPP solution); settings: 5 mL of aqueous complex solution mixed with 5 mL of 2 wt % STPP solution
# Method: Aqueous solutions of ZLP and ZLC, respectively, are prepared as described above, and 5 mL of each of these solutions is mixed with 5 mL STPP solution at a concentration of 2 wt %. […] Thus, ZLP complex is stable in the presence of additional STPP, whereas other zinc complexes may not be.
# [3] = Foaming experiment with sodium lauryl sulfate; settings: 7.25 wt % complex (0.85 wt % zinc) with 2 wt % sodium lauryl sulfate in distilled water; vial shaken ten times
# Method: A solution of ZLP in distilled water at a concentration of 7.25 wt % (0.85 wt % zinc) containing also 2 wt % of sodium lauryl sulfate is compared to a solution of ZLC and sodium lauryl sulfate at the same concentrations and to a solution of sodium lauryl sulfate. Each solution is sealed in a screw-cap vial and shaken back and forth ten times. […] A similar experiment is conducted using an 1:10 aqueous slurry of the toothpaste formula of Example 1 compared to a control toothpaste having the same composition except for the absence of ZLP (in the control, the 7.25% ZLP is replaced by 0.5 wt % TSPP and 6.75 wt % sorbitol, 70%).
# [4] = Dilution experiment (precipitation on dilution with water); settings: solutions in distilled water, ZLP 200 mg/mL, ZLC 185 mg/mL; diluted with water at ratios from 1:2 to 1:16; ZLC result at dilutions of 1:8 to 1:16
# Method: (§1) A solution of ZLP in distilled water at a concentration of 200 mg/mL (23.6 wt % zinc) is prepared. For comparison, a solution of zinc-lysine-chloride complex (ZLC) ([Zn(lysine)2Cl]Cl) is prepared at a concentration of 185 mg/mL. Both solutions are diluted with water at ratios from 1:2 to 1:16.
# [5] = Storage of undiluted solution at room temperature, repeat LC-MS analysis; settings: undiluted 200 mg/mL solution stored at room temperature for one month
# Method: About 6.0 g of lysine hydrochloride is dissolved in 250 ml distilled water with stirring at room temperature. About 12.0 g sodium tripolyphosphate pentabasic is added with stirring, followed by either 50% aqueous sodium hydroxide solution or concentrated hydrochloric acid solution to adjust the pH to either 5, 6, 7, 8, 9 or 10. To the resulting solution, about 2.68 g of zinc oxide is slowly added. The mixture is then allowed to stir at either room temperature, 50° C. or 80° C., for 2 hours. The reaction is monitored by liquid chromatography-mass spectrometry (LC-MS, using electrospray ionization-tandem mass spectrometer running positive ion mode). LC separation is achieved on Agilent Zorbax SB-Aq column (2.1 mm i.d.×50 mm, 3.5 μm particle size), running 5% water/methanol at 70 μL/minute with 1 μL injection volume.
# as §1
Molecule,solubility in aqueous titration solution [1],appearance after mixing with STPP solution [2],foaming of solution with SLS relative to aqueous SLS solution [3],precipitation upon dilution with water [4],change of LC-MS spectrum after storage [5]
O=P([O-])([O-])OP(=O)([O-])OP(=O)([O-])[O-].[Na+].[Na+].[Na+].[Zn+2] [Na3Zn(P3O10)],soluble,,,,
O=P([O-])([O-])OP(=O)([O-])OP(=O)([O-])[O-].[Na+].[Zn+2].[Zn+2] [NaZn2(P3O10)],poorly soluble,,,,
"NCCCCC(N)C(=O)O.NCCCCC(N)C(=O)O.[Cl-].[Cl-].[Zn+2] (stereo not drawn) [ZLC, [Zn(lysine)2Cl]Cl]",,produces a white precipitate,significantly inhibited,significant precipitation of insoluble material,
[Zn(C6H14N2O2)(P3O10)Na4]^+Cl^− [ZLP],,remains clear and homogenous,comparable,no precipitation occurs at any dilution,has not changed
